Test results reported in patent US20030211469A1, “Inhibiting hepatitis c virus processing and replication” (priority 2003, published 2003).
Read-outs that look alike come from different tables or passages of the source.

Assays:
[1] = tested on: ubiquitin-ubiquitin-ubiquitin-NS2/3-β-lactamase in Jurkat cells; assay: Cell-based NS2/3 cleavage assay, Jurkat cells, β-lactamase/CCF2 readout; parameters: species or system Hepatitis C virus; settings: for IC50: read-out: IC50, NS2/3 cleavage in cells, 5 hours treatment, 460 nm/530 nm ratio
Protocol: Inhibitor treatment was for 5 hours, followed by addition of cycloheximide to stop protein synthesis (30 minutes) and subsequent addition of the β-lactamase substrate, CCF2. After 2 hours, β-lactamase activity was quantified by fluorescence readings (460 nm/530 nm ratio). Lower 460 nm/530 nm ratios indicate inhibition of NS2/3 cleavage.
Through the use of a neomycin-selectable transfection vector, stable expression of NS2/3 in Jurkat cells was obtained. The plasmid pUbBla3X-NS2/3-3A conferring neomycin (G418) resistance, expresses a fusion of the NS2/3 protein with 3 ubiquitin domains appended to the N-terminus and β-lactamase at the C-terminus. The complete uncleaved protein has an in vivo half-life estimated to be 5-10 minutes.
The plasmid pUbBla3X NS2/3-3A was transfected into Jurlcat cells. The CMV promoter-driven ORF of the plasmid encodes a 91 kDa protein, ubiquitin-ubiquitin-ubiquitin-NS2/3-β-lactamase, with the C-termini of the 3 ubiquitin domains rendered non-cleaveable to ubiquitin-C-terminal hydrolases (ubiquitin C-terminal sequence ArgLeuArgGlyVal, SEQ. ID. NO. 2). The NS2/3 region includes HCV residues 849-1207. The β-lactamase domain is TEM-1 from E. coli. Expression of the P-lactamase moiety is readily detected with the fluorogenic, cell-penneant substrate, CCF2. (Zlokarnik, et al., (1998) Scienice 279, 84.) Transfectants were sorted by FACS using treatment with CCF2 to indicate β-lactamase expression (Zlokarnik, et al., (1998) Science 279, 84), and individual clones were grown under G418 selection. The full fusion protein expressed is highly unstable to ubiquitin-directed proteosomal degradation due to its ubiquitin N-terminal tag, while the C-terminal product of NS2/3 cleavage, NS3-β-lactamase, is stable for hours. Thus, build-up in the cells of O-lactamase activity, as indicated by CCF2 hydrolysis (high 460 nm1530 nm ratio) is indicative of successful NS2/3 cleavage, and suppression of P-lactamase activity indicates NS2/3 inhibition.
(See, Grakoui, et al., (1993) P.N.A.S. USA 90, 10583, Selby, et al., (1993) J. Gen. Virol. 74, 1103, fijikata, et al., (1993) J. Virol. 67, 4665, Santolini, et al., (1995) J. Viol. 69, 7461, D'Souza, et al., (1994) J. Gen. Virol. 75, 3469, and Pieroni, et al., (1997) J. Virol. 71, 6373.) NS2/3 self-cleavage separates the destabilizing ubiquitin degradation signal at the N-terminus from the NS3-O-lactamase C-terminal product, thus stabilizing the β-lactamase activity within the cell.

HCV NS2/3 (810-1615BK) [2] = assay type: biochemical, Hepatitis C virus (BK strain); settings: for NS2/3 Processed (% of Control): present during synthesis and processing, 30 minutes
Protocol: (§1) HCV residues 810-1615 of the BK strain, which includes all of NS2 and most of NS3 (termed 810-1615BK), was produced from the plasmid pCITE 810-1615BK (a gift from Dr. Nicola La Monica) and has been described previously by Pieroni, et al., (1997) J. Virol. 71, 6373. Following plasmid linearization with BLP1, RNA was transcribed with T7 RNA polymerase and purified. Protein translation was in rabbit reticulocyte lysate, 30° C. for 40 minutes using [^35S]-methionine as a label. Translation was then blocked by the addition of cycloheximide (250 μM final) and the samples were immediately frozen on dry ice.
(§2) Prior to processing experiments, an aliquot of translated NS2/3 was thawed on ice. Processing of 810-1615BK was initiated by addition to room temperature solutions containing Triton X-100 at 1%, as described by Pieroni, et al., (1997) J. Virol. 71, 6373. The distribution of [^35S]-labeled proteins on dried gels was determined with a Phosphorimager (Molecular Dynamics). Product bands were quantified and expressed as a proportion of total signal in the gel lane so that variations in gel lane loading were normalized.
NS2/3 processing reactions were performed with 810-1615BK. […] (Darke, et al., (1999) J. Biol. Chem. 274, 34511.) Inhibitors were dissolved in DMSO and protected from light. Dilutions were in DMSO, such that the final concentration of DMSO was 2% for in vitro experiments and 1% for cell-based assays. […] (Hu, et al., (1996) P.N.A.S. USA 93, 1060; Thulasiraman, et al., (1996) Biochemistry 35, 13443 (1996), Schneider, et al., (1996) P.N.A.S. USA 93, 14536.)
to the data, where a is the minimal level of fractional activity (tending to 0), a+b is the maximal level (tending to 1), x is the concentration of inhibitor, c is the IC50 and d is a slope coefficient. […] Values given are the average of two determinations.

HCV NS2/3 (810-1615BK) [3] = biological target: T1, HCV NS2/3 (810-1615BK) (Hepatitis C virus genotype 1b, UniProt P26663); assay type: biochemical, Hepatitis C virus (BK strain); settings: for NS2/3 Processed (% of Control): 5 mM final concentration of nucleoside analog; for inhibition at the maximum concentration tested: 5 mM; for inhibition at the maximum concentration tested / IC50: residual ATP approximately 1 mM; for IC50: titration, read-out: IC50, inhibition of NS2/3 processing
T1 construct: HCV residues 810-1615 of the BK strain; made in house; host or cells: in vitro translation in rabbit reticulocyte lysate from plasmid pCITE 810-1615BK
Protocol: as §1, §2

[4] = biological target: T2, NS2/3 fusion protein Ubi-849-1207J-BLA (UniProt P26662+P62593, S1165A); assay: Processing of NS2/3 fusion protein Ubi-849-1207J-BLA in reticulocyte lysate; assay type: biochemical, Hepatitis C virus (J strain)
T2 construct: NS2/3 residues 849-1207 (J strain); ubiquitin (N, cleaved yes); made in house; host or cells: in vitro translation in rabbit reticulocyte lysate from plasmid pM3A
Source text: The plasmid pM3A, derived from pCDNA (Invitrogen), encodes a fusion protein termed Ubi-849-1207J-BLA that contains ubiquitin at its N-terminus, followed by NS2/3 residues 849-1207 (J strain) linked to bacterial TEM-1 β-lactamase at the C-terminus. […] RNA synthesis for this construct is driven by the T7 promoter, and RNA was separately prepared for translation as in Example 1. Upon translation in rabbit reticulocyte lysate, the ubiquitin is immediately cleaved from the protein by cellular ubiquitin hydrolases. (Hochstrasser, (1996) Annual Review of Genetics 30, 405.)
The cleavable linkage (SEQ. ID. NO. 1) is present as ubiquitin↓ArgHisGlySerGluPhe-NS2/3. […] Translations were limited to 30 minutes for that reason. Quantification of processing at room temperature was by comparison of samples prepared immediately after addition of cycloheximide with later time samples.

[5] = titration, 810-1615BK, average of two determinations

Structure (SMILES)	inhibition at the highest concentrations tested [1]	IC50 [1] [µM]	NS2/3 Processed (% of Control) (HCV NS2/3 (810-1615BK) [3])	inhibition at the maximum concentration tested (HCV NS2/3 (810-1615BK) [3]) [%]	IC50 (HCV NS2/3 (810-1615BK) [3]) [µM]	also measured
COC1=C2C[C@@H](C)C[C@H](OC)[C@H](O)[C@@H](C)/C=C(\C)[C@H](OC(N)=O)[C@@H](OC)/C=C\C=C(/C)C(=O)NC(=CC1=O)C2=O [Geldanamycin]	nearly complete	0.04				
CO[C@H]1[C@@H](OC)C[C@H](C)[C@@H](OC)C2=CC(=O)C=C(NC(=O)/C(C)=C/C=C\[C@H](OC)[C@@H](OC(N)=O)/C(C)=C/[C@@H]1C)C2=O [Herbimycin A, herbimycin A]						NS2/3 Processed (% of Control) (HCV NS2/3 (810-1615BK) [2]; 1 μM): 38 % of Control; NS2/3 Processed (% of Control) (HCV NS2/3 (810-1615BK) [2]; 10 μM): 22 % of Control
C[C@@H]1C[C@H]2O[C@@H]2/C=C\C=C\C(=O)Cc2c(Cl)c(O)cc(O)c2C(=O)O1 [Radicicol]	nearly complete	0.013				EC50 (HCV NS2/3 (810-1615BK) [2]; [5]): 0.22 ± 0.12 µM; Maximum Inhibition (%) (HCV NS2/3 (810-1615BK) [2]; [5]): 51%
Nc1ncnc2c1ncn2[C@@H]1O[C@H](COP(=O)(O)OP(=O)(O)NP(=O)(O)O)[C@@H](O)[C@H]1O [AMP-PNP]			40 % of Control	60	4000	
Nc1ncnc2c1ncn2[C@@H]1O[C@H](COP(=O)(O)OP(=O)(O)OP(O)(O)=S)[C@@H](O)[C@H]1O [ATPγS]			24 % of Control	77	2000	Inhibition of NS2/3 processing, J-strain fusion protein [4]: Inhibition by ATPγS was also observed
